Measurements: patent publication US8557823B2, “Family of PFKFB3 inhibitors with anti-neoplastic activities” (Advanced Cancer Therapeutics, LLC, priority 2007, dated 2013)
Where two headings read alike, the source gives them in different places.

Tests used:
Assay type in all cases: cell-based
Jurkat = assay: Cancer cell proliferation, Alamar Blue assay 72 hours, Jurkat
Protocol: (§1) The ability of the compounds described herein to kill or inhibit the proliferation of cancer cells was measured using either the MTT assay, the Alamar Blue assay, or the Cell Titer Glow® assay using 48 or 72 hours exposure. […] The procedures are briefly described below. Cells of the desired tumor cell line were plated at 2×10^5 cells/ml in 96 well plates. Twice the indicated concentrations of the compounds of the invention were added to cells the following day in an equal volume of media. 72 hours later, cells were lysed and subjected to ATP determination using the CellTiter Glo-Luminescent Cell Viability Assay kit (Promega, Madison, Wis.). Experiments were done in triplicate. When using the MTT assay or the Alamar blue assay, the experimental conditions are essentially similar; at the end of the incubation period, 20 microl of the MTT solution is added per well and the samples are incubated for an additional four hours, rinsed and the absorbance at 570 nm measured. Results for the inhibition of cells proliferation are reported as IC50 as commonly done (the concentration leading to a 50% inhibition of proliferation of the cell population) and are listed in the Tables below. Table 4 lists the IC50 for the compounds of the invention in several cell lines including Jurkat, Calu-6, NCI-H82, U937, or NCI-H1437 cancer cell lines. Table 5 lists the IC50 of PFK-070 in a panel of 10 cell lines.

U937 = assay: Cancer cell proliferation, Alamar Blue assay 72 hours, U937; conditions: Homo sapiens, U-937
Protocol: as §1

Calu-6 = assay: Cancer cell proliferation, Alamar Blue assay 72 hours, Calu-6; conditions: Homo sapiens
Protocol: as §1

NCI-H82 = assay: Cancer cell proliferation, Alamar Blue assay 72 hours, NCI-H82; conditions: Homo sapiens
Protocol: as §1

Row | SMILES | IC50 (Jurkat; Homo sapiens, Jurkat, 72 h) [µM] | IC50 (U937) [µM] | IC50 (Calu-6) [µM] | IC50 (NCI-H82) [µM] | IC50 (Jurkat) [µM]
1 | O=C(/C=C/c1ccnc2ccccc12)c1ccncc1 [ACT-PFK-013, 1-Pyridin-4-yl-3-quinolin-4-yl-propenone] | 1 |  |  |  | 
2 | O=C(/C=C/c1ccc2ccccc2n1)c1ccc(O)cc1 [ACT-PFK-087, 1-(4-Hydroxy-phenyl)-3-quinolin-2-yl-propenone] | 3.7 | 1.3 | 1.6 | 2.3 | 
3 | O=C(/C=C/c1ccc2cccnc2c1)c1cccnc1 [ACT-PFK-037, 1-Pyridin-3-yl-3-quinolin-7-yl-propenone] | 2.5 |  |  |  | 
4 | O=C(/C=C/c1cnc2ccccc2c1)c1ccncc1 [ACT-PFK-014, 1-Pyridin-4-yl-3-quinolin-3-yl-propenone] |  |  |  |  | 4
5 | O=C(/C=C/c1cccc2ncccc12)c1ccncc1 [ACT-PFK-038, 1-Pyridin-4-yl-3-quinolin-5-yl-propenone] | 1 |  |  |  | 
6 | O=C(/C=C/c1ccnc2ccccc12)c1cccnc1 [ACT-PFK-036, 1-Pyridin-3-yl-3-quinolin-4-yl-propenone] | 2.5 |  |  |  | 
7 | Cc1ccc(C(=O)/C=C/c2ccc3ccccc3n2)cc1 [ACT-PFK-068, 3-Quinolin-2-yl-1-p-tolyl-propenone] | 5.5 | 1.6 | 4.8 |  | 
8 | O=C(/C=C/c1ccc2ccccc2n1)c1ccccc1O [ACT-PFK-086, 1-(2-Hydroxy-phenyl)-3-quinolin-2-yl-propenone] | 80.5 | 19.3 | > 100 | 22.5 | 
9 | O=C(/C=C/c1cc(O)c2ccccc2n1)c1ccncc1 [ACT-PFK-066, 3-(4-Hydroxy-quinolin-2-yl)-1-pyridin-4-yl-propenone] | 2.4 | 1.3 | 3.8 |  | 
10 | Cc1ccc(C(=O)/C=C/c2cc(O)c3ccccc3n2)cc1 [ACT-PFK-073, 3-(4-Hydroxy-quinolin-2-yl)-1-p-tolyl-propenone] | 0.6 | 0.2 | 0.8 |  | 
11 | Nc1ccc(C(=O)/C=C/c2ccc3ccccc3n2)cc1 [ACT-PFK-089, 1-(4-Amino-phenyl)-3-quinolin-2-yl-propenone] | 4.2 | 1.6 | 2.1 | 0.9 | 
12 | O=C(/C=C/c1cccc2ncccc12)c1cccnc1 [ACT-PFK-039, 1-Pyridin-3-yl-3-quinolin-5-yl-propenone] | 1 |  |  |  | 
13 | O=C(/C=C/c1cnc2ccccc2c1)c1cccnc1 [ACT-PFK-048, 1-Pyridin-3-yl-3-quinolin-3-yl-propenone] | 17 |  |  |  | 
14 | O=C(/C=C/c1cccc2cccnc12)c1ccncc1 [ACT-PFK-047, 1-Pyridin-4-yl-3-quinolin-8-yl-propenone] | 14 |  |  |  | 
15 | O=C(/C=C/c1cnc2ccccc2c1)c1ccncc1 [ACT-PFK-055, 1-Pyridin-4-yl-3-quinolin-3-yl-propenone] |  |  |  |  | > 100
16 | Nc1ccccc1C(=O)/C=C/c1ccc2ccccc2n1 [ACT-PFK-088, 1-(2-Amino-phenyl)-3-quinolin-2-yl-propenone] | > 100 | 17.2 | > 100 | 38.5 | 
17 | O=C(/C=C/c1ccc2cccc(O)c2n1)c1cccnc1 [ACT-PFK-067, 3-(8-Hydroxy-quinolin-2-yl)-1-pyridin-3-yl-propenone] | 3.1 | 0.83 | 2.4 |  | 
18 | O=C(/C=C/c1ccc2ccccc2n1)c1cccnc1 [ACT-PFK-035, 1-Pyridin-3-yl-3-quinolin-2-yl-propenone] | 2.5 |  |  |  | 
19 | Cc1ccc(C(=O)/C=C/c2ccc3cccc(O)c3n2)cc1 [ACT-PFK-071, 3-(8-Hydroxy-quinolin-2-yl)-1-p-tolyl-propenone] | 4.8 | 1.9 | 5 |  | 
